From BindingDB's records for doi:10.1016/j.ejmech.2019.04.053 (China Pharmaceutical University, 2019)

Assay: Inhibition of human TRKA expressed in human TF1 cells by CellTiter-Glo Luminescent assay

| IC50 [nM] | Compound |
| --- | --- |
| 0.64 | Cc1c(OCC2CCN(C)CC2)nn(-c2ccccc2)c1NC(=O)N[C@H]1CN(CC(F)(F)F)[C@@H]2COc3ccccc3[C@H]12 |
| < 100 | COCC[C@@H]1C[C@@H](NC(=O)Nc2c(C)c(-c3cnn(C)c3)nn2-c2ccccc2)[C@H](c2cnc(Cl)c(F)c2)N1 |
| < 100 | COCC[C@@H]1C[C@@H](NC(=O)Nc2c(C)c(-c3cnc4c(c3)c(N=S(C)(C)=O)nn4C)nn2-c2ccccc2)[C@H](c2ccc(F)c(F)c2)N1 |
| 0.59 | COCCN1C[C@@H](NC(=O)Nc2c(C)c(-c3cnn(C)c3)nn2-c2ccccc2)[C@@H]2c3ccccc3CC[C@H]21 |
| 0.64 | COCC[C@@H]1C[C@@H](NC(=O)Nc2c(C)c(-c3cnn(C)c3)nn2-c2ccccc2)[C@@H]2c3ccccc3C(F)(F)CN12 |
